Experimental data as given in the kinase profiling compilation of Christmann-Franck et al. (2016).

Tests used:
Experiment in all cases: KINOMEscan competition binding
[1] = test system: EGFR (human), P00533 [746-750 del]
CDC42BPG (human) = CDC42BPG (human) (UniProt Q6DT37)
PRKG1 (human) = PRKG1 (human) (UniProt Q13976)
ULK2 (human) = ULK2 (human) (UniProt Q8IYT8)
PAK7 (human) = PAK7 (human) (UniProt Q9P286)
CDK15 (human) = CDK15 (human) (UniProt Q96Q40)
CHUK (human) = CHUK (human) (UniProt O15111)
TSSK1B (human) = TSSK1B (human) (UniProt Q9BXA7)
CAMK2A (human) = CAMK2A (human) (UniProt Q9UQM7)
ITK (human) = ITK (human) (UniProt Q08881)
CAMK1G (human) = CAMK1G (human) (UniProt Q96NX5)
[2] = target: JAK3 JH1 catalytic (human) (UniProt P52333)
PLK3 (human) = PLK3 (human) (UniProt Q9H4B4)
GRK1 (human) = GRK1 (human) (UniProt Q15835)
CRK2 (P.falciparum) = CRK2 (P.falciparum) (UniProt P61075)
[3] = test system: ABL1 (human), P00519 [M351T]
RPS6KA5 KD2 (human) = RPS6KA5 KD2 (human) (UniProt O75582)
PIP5K1A (human) = PIP5K1A (human) (UniProt Q99755)
[4] = target: TYK2 JH1 catalytic (human) (UniProt P29597)
[5] = test system: MET (human), P08581 [Y1235D]
MAPK8 (human) = MAPK8 (human) (UniProt P45983)
[6] = test system: KIT (human), P10721 [A829P]
[7] = test system: KIT (human), P10721 [D816H]
MYLK3 (human) = MYLK3 (human) (UniProt Q32MK0)
PIK3C2G (human) = PIK3C2G (human) (UniProt O75747)
LCK (human) = LCK (human) (UniProt P06239)
CAMKK1 (human) = CAMKK1 (human) (UniProt Q8N5S9)
MAPKAPK2 (human) = MAPKAPK2 (human) (UniProt P49137)
FYN (human) = FYN (human) (UniProt P06241)
DMPK (human) = DMPK (human) (UniProt Q09013)
DAPK1 (human) = DAPK1 (human) (UniProt P53355)
IKBKE (human) = IKBKE (human) (UniProt Q14164)
ACVR1 (human) = ACVR1 (human) (UniProt Q04771)
WEE2 (human) = WEE2 (human) (UniProt P0C1S8)
[8] = test system: EGFR (human), P00533 [A750P; 747-749 del]
[9] = test system: PIK3CA (human), P42336 [E542K]
EPHB6 (human) = EPHB6 (human) (UniProt O15197)
TEC (human) = TEC (human) (UniProt P42680)
RPS6KA1 KD2 (human) = RPS6KA1 KD2 (human) (UniProt Q15418)
PRKCE (human) = PRKCE (human) (UniProt Q02156)
CSNK1D (human) = CSNK1D (human) (UniProt P48730)
MAPK3 (human) = MAPK3 (human) (UniProt P27361)

Sequence of CDC42BPG (human) (Q6DT37 whole entry, looked up): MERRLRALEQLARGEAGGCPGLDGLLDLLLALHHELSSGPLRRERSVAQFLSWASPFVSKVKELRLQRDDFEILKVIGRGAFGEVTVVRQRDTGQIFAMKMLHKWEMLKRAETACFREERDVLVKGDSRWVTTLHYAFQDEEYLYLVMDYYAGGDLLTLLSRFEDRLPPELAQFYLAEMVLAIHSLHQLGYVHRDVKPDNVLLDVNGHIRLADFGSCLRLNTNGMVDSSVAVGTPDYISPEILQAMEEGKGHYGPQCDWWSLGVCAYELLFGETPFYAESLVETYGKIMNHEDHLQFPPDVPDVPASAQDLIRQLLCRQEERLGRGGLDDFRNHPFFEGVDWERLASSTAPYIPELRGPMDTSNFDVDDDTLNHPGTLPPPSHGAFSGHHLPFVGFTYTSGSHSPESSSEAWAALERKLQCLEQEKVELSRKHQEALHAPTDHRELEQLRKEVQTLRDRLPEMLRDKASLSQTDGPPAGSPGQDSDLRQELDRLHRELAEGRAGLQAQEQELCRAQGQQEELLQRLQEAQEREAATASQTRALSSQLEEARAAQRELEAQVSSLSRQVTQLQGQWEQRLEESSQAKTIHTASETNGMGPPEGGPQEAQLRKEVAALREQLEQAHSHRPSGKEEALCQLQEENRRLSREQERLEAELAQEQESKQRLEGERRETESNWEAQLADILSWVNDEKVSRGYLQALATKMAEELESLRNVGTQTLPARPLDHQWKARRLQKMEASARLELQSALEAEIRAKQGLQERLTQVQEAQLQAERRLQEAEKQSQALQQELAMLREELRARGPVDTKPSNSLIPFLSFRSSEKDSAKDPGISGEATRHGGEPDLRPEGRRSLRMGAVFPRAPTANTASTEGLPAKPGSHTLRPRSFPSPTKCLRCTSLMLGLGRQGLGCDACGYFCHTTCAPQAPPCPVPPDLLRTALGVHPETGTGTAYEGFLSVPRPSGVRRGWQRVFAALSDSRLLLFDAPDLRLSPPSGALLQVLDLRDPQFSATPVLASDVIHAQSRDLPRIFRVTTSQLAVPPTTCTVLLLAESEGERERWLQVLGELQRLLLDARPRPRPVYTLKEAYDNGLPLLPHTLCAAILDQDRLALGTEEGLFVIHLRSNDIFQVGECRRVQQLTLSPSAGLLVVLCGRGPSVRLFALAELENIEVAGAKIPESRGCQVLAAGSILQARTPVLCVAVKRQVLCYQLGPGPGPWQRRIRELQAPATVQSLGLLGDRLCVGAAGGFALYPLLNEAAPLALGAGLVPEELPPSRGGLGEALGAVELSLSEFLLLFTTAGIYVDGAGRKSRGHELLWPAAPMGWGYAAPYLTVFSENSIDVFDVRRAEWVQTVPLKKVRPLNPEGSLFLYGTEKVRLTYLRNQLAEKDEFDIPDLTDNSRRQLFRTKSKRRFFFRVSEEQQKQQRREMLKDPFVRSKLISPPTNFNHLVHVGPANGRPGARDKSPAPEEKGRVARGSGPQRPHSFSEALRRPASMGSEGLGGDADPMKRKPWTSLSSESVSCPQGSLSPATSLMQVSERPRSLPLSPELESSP
Sequence of MAPK8 (human) (P45983 whole entry, looked up): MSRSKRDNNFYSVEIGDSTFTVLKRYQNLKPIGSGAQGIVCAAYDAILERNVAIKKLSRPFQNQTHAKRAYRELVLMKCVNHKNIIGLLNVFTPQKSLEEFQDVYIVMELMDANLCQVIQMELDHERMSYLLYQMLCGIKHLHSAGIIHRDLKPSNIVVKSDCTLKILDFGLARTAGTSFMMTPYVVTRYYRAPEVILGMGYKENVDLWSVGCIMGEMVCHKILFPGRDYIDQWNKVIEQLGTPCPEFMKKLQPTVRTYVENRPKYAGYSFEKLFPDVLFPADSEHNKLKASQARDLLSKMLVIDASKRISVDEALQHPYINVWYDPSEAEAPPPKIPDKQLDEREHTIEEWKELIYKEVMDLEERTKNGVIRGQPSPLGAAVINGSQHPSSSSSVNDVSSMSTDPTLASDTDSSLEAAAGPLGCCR
Sequence of DMPK (human) (Q09013 whole entry, looked up): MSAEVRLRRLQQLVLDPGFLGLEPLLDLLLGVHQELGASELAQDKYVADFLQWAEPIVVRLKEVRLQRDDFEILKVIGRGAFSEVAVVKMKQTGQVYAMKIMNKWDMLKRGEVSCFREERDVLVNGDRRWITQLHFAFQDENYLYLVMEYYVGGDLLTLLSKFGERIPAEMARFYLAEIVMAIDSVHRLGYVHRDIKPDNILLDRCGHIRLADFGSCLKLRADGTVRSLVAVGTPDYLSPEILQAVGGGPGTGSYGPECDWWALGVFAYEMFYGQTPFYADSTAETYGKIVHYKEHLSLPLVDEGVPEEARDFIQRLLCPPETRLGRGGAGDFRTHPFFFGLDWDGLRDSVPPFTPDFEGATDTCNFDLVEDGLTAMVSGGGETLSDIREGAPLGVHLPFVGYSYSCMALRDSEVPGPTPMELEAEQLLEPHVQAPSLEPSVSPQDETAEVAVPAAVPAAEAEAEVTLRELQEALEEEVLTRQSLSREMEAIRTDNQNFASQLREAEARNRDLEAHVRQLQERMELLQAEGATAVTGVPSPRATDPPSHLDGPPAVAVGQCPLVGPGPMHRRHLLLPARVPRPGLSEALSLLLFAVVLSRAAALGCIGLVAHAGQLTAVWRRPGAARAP
Sequence of PLK3 (human) (Q9H4B4 whole entry, looked up): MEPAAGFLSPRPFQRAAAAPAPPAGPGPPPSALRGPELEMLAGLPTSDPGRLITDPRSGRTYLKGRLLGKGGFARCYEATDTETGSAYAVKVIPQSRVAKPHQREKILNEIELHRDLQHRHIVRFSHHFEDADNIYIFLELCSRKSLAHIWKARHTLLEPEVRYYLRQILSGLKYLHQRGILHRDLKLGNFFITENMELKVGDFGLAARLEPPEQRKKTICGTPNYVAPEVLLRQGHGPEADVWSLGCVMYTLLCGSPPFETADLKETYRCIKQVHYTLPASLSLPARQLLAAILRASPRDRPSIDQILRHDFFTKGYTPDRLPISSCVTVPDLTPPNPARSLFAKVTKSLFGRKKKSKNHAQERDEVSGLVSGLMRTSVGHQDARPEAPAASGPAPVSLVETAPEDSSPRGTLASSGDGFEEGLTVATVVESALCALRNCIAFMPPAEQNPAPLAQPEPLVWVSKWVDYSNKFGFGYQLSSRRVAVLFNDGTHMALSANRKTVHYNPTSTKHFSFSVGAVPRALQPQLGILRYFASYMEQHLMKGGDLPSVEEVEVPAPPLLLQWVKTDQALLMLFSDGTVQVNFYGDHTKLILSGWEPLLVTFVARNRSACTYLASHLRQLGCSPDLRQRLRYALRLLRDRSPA
Sequence of PAK7 (human) (Q9P286 whole entry, looked up): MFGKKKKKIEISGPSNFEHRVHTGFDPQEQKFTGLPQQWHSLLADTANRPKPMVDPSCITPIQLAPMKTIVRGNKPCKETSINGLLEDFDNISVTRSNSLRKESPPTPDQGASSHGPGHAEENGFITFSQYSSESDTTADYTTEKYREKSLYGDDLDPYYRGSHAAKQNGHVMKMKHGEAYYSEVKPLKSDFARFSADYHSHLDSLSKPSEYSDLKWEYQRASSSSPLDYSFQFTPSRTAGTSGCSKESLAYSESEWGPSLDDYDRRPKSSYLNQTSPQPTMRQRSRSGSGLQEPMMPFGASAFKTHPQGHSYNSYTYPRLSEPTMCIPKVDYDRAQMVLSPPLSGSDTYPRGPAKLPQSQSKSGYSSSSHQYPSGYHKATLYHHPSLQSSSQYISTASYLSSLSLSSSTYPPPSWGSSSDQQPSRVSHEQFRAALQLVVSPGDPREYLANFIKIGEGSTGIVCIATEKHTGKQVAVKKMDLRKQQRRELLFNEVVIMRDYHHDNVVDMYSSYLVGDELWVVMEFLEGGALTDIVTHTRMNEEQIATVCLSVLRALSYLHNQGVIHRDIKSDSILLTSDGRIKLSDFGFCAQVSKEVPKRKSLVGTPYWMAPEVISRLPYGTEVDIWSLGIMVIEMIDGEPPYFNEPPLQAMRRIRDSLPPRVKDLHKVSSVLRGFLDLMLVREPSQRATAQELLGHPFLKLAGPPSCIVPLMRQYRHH
Sequence of PIK3CA (human), P42336 [E542K] (P42336 whole entry E542K, looked up): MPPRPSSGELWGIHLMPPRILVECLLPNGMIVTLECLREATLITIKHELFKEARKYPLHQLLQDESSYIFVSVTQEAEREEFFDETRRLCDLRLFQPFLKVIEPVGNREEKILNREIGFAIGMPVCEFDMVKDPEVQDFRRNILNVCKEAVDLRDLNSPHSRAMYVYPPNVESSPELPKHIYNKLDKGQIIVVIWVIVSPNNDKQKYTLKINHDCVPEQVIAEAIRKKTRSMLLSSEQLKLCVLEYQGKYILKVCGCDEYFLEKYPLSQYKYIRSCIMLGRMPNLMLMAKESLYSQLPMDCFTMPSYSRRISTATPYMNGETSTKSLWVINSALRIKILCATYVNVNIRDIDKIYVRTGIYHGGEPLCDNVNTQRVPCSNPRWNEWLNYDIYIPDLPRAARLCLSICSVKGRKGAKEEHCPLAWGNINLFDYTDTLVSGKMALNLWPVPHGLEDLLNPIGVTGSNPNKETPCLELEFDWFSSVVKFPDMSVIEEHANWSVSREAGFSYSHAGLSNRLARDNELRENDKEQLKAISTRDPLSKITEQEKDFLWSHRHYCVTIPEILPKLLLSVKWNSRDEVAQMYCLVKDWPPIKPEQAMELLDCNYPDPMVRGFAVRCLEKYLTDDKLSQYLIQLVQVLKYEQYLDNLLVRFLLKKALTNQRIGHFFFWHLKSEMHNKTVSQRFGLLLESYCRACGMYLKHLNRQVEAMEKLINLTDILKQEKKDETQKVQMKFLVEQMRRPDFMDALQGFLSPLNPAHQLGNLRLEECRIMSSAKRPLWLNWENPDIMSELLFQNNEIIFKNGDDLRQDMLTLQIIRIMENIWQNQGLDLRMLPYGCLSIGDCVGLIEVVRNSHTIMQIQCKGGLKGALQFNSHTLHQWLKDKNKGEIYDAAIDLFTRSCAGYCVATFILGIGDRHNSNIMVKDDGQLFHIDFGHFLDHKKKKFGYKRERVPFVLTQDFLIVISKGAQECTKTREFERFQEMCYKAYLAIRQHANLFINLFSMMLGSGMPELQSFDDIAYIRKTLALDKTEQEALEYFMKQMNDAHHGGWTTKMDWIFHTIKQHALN

Cc1ccc(NC(=O)c2ccc(NC(=O)/C=C/CN(C)C)cc2)cc1Nc1nccc(-c2cccnc2)n1
kinase still bound, per cent of control ([1]; compound 10.0 µM): 61% | kinase still bound, per cent of control (CDC42BPG (human); compound 10.0 µM): 86% | kinase still bound, per cent of control (PRKG1 (human); compound 10.0 µM): 97% | kinase still bound, per cent of control (ULK2 (human); compound 10.0 µM): 30% | kinase still bound, per cent of control (PAK7 (human); compound 10.0 µM): 72% | kinase still bound, per cent of control (CDK15 (human); compound 10.0 µM): 100% | kinase still bound, per cent of control (CHUK (human); compound 10.0 µM): 70% | kinase still bound, per cent of control (TSSK1B (human); compound 10.0 µM): 100% | kinase still bound, per cent of control (CAMK2A (human); compound 10.0 µM): 93% | kinase still bound, per cent of control (ITK (human); compound 10.0 µM): 100% | kinase still bound, per cent of control (CAMK1G (human); compound 10.0 µM): 79% | kinase still bound, per cent of control ([2]; compound 10.0 µM): 100% | kinase still bound, per cent of control (PLK3 (human); compound 10.0 µM): 46% | kinase still bound, per cent of control (GRK1 (human); compound 10.0 µM): 100% | kinase still bound, per cent of control (CRK2 (P.falciparum); compound 10.0 µM): 100% | kinase still bound, per cent of control ([3]; compound 10.0 µM): 47% | kinase still bound, per cent of control (RPS6KA5 KD2 (human); compound 10.0 µM): 100% | kinase still bound, per cent of control (PIP5K1A (human); compound 10.0 µM): 8% | kinase still bound, per cent of control ([4]; compound 10.0 µM): 92% | kinase still bound, per cent of control ([5]; compound 10.0 µM): 100% | Kd (MAPK8 (human)): 290 nM | kinase still bound, per cent of control (MAPK8 (human); compound 10.0 µM): 0% | kinase still bound, per cent of control ([6]; compound 10.0 µM): 17% | kinase still bound, per cent of control ([7]; compound 10.0 µM): 29% | kinase still bound, per cent of control (MYLK3 (human); compound 10.0 µM): 97% | kinase still bound, per cent of control (PIK3C2G (human); compound 10.0 µM): 100% | kinase still bound, per cent of control (LCK (human); compound 10.0 µM): 54% | kinase still bound, per cent of control (CAMKK1 (human); compound 10.0 µM): 99% | kinase still bound, per cent of control (MAPKAPK2 (human); compound 10.0 µM): 100% | kinase still bound, per cent of control (FYN (human); compound 10.0 µM): 95% | kinase still bound, per cent of control (DMPK (human); compound 10.0 µM): 100% | kinase still bound, per cent of control (DAPK1 (human); compound 10.0 µM): 72% | kinase still bound, per cent of control (IKBKE (human); compound 10.0 µM): 100% | kinase still bound, per cent of control (ACVR1 (human); compound 10.0 µM): 100% | kinase still bound, per cent of control (WEE2 (human); compound 10.0 µM): 100% | kinase still bound, per cent of control ([8]; compound 10.0 µM): 59% | kinase still bound, per cent of control ([9]; compound 10.0 µM): 100% | kinase still bound, per cent of control (EPHB6 (human); compound 10.0 µM): 26% | kinase still bound, per cent of control (TEC (human); compound 10.0 µM): 100% | kinase still bound, per cent of control (RPS6KA1 KD2 (human); compound 10.0 µM): 77% | kinase still bound, per cent of control (PRKCE (human); compound 10.0 µM): 100% | kinase still bound, per cent of control (CSNK1D (human); compound 10.0 µM): 54% | kinase still bound, per cent of control (MAPK3 (human); compound 10.0 µM): 100%

CN(C)C/C=C/C(=O)Nc1cccc(C(=O)Nc2ccc(Nc3nccc(-c4c(-c5ccccc5)nn5ccccc45)n3)cc2)c1
kinase still bound, per cent of control ([1]; compound 1.0 µM): 0% | Kd (CDC42BPG (human)): 18 nM | kinase still bound, per cent of control (CDC42BPG (human); compound 1.0 µM): 0.25% | kinase still bound, per cent of control (PRKG1 (human); compound 1.0 µM): 90% | kinase still bound, per cent of control (ULK2 (human); compound 1.0 µM): 100% | kinase still bound, per cent of control (PAK7 (human); compound 1.0 µM): 92% | kinase still bound, per cent of control (CDK15 (human); compound 1.0 µM): 100% | kinase still bound, per cent of control (CHUK (human); compound 1.0 µM): 93% | kinase still bound, per cent of control (TSSK1B (human); compound 1.0 µM): 86% | kinase still bound, per cent of control (CAMK2A (human); compound 1.0 µM): 100% | kinase still bound, per cent of control (ITK (human); compound 1.0 µM): 100% | kinase still bound, per cent of control (CAMK1G (human); compound 1.0 µM): 94% | kinase still bound, per cent of control ([2]; compound 1.0 µM): 49% | kinase still bound, per cent of control (PLK3 (human); compound 1.0 µM): 100% | kinase still bound, per cent of control (GRK1 (human); compound 1.0 µM): 100% | kinase still bound, per cent of control (CRK2 (P.falciparum); compound 1.0 µM): 100% | kinase still bound, per cent of control ([3]; compound 1.0 µM): 14% | kinase still bound, per cent of control (RPS6KA5 KD2 (human); compound 1.0 µM): 97% | kinase still bound, per cent of control (PIP5K1A (human); compound 1.0 µM): 67% | kinase still bound, per cent of control ([4]; compound 1.0 µM): 76% | kinase still bound, per cent of control ([5]; compound 1.0 µM): 59% | kinase still bound, per cent of control (MAPK8 (human); compound 1.0 µM): 0% | kinase still bound, per cent of control ([6]; compound 1.0 µM): 71% | kinase still bound, per cent of control ([7]; compound 1.0 µM): 86% | kinase still bound, per cent of control (MYLK3 (human); compound 1.0 µM): 91% | kinase still bound, per cent of control (PIK3C2G (human); compound 1.0 µM): 100% | kinase still bound, per cent of control (LCK (human); compound 1.0 µM): 8.6% | kinase still bound, per cent of control (CAMKK1 (human); compound 1.0 µM): 100% | kinase still bound, per cent of control (MAPKAPK2 (human); compound 1.0 µM): 84% | kinase still bound, per cent of control (FYN (human); compound 1.0 µM): 49% | kinase still bound, per cent of control (DMPK (human); compound 1.0 µM): 59% | kinase still bound, per cent of control (DAPK1 (human); compound 1.0 µM): 94% | kinase still bound, per cent of control (IKBKE (human); compound 1.0 µM): 95% | kinase still bound, per cent of control (ACVR1 (human); compound 1.0 µM): 3.8% | kinase still bound, per cent of control (WEE2 (human); compound 1.0 µM): 100% | kinase still bound, per cent of control ([8]; compound 1.0 µM): 1.6% | kinase still bound, per cent of control ([9]; compound 1.0 µM): 91% | kinase still bound, per cent of control (EPHB6 (human); compound 1.0 µM): 9.4% | kinase still bound, per cent of control (TEC (human); compound 1.0 µM): 100% | kinase still bound, per cent of control (RPS6KA1 KD2 (human); compound 1.0 µM): 36% | kinase still bound, per cent of control (PRKCE (human); compound 1.0 µM): 93% | kinase still bound, per cent of control (CSNK1D (human); compound 1.0 µM): 3.1% | kinase still bound, per cent of control (MAPK3 (human); compound 1.0 µM): 100%
